# Results published in US6706663B2, “Herbicidal 3-heterocyclic substituted benzisothiazole and benzisoxazole compounds” (Wyeth, priority 2000, dated 2004).
# Columns and labels:
# [1] = system: ABUTH (Abutilon theophrasti); experiment: Postemergence herbicidal evaluation; format: in vivo, Medic.; conditions: for ABUTH herbicidal rating: postemergence
# Procedure, shortened: (§1)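 Seedlings grown about two weeks in flats, sprayed, then kept under standard greenhouse care. Rated visually 4–5 weeks after treatment on a 0–9 scale (stand, vigour, malformation, size, chlorosis, overall appearance) relative to untreated control; repeat tests averaged.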
# GALAP (Galium aparine) = experiment: Postemergence herbicidal evaluation; format: in vivo; conditions: for GALAP herbicidal rating: postemergence
# Procedure, shortened: as §1
# [2] = system: IPOHE (Ipomoea hederacea); experiment: Postemergence herbicidal evaluation; format: in vivo, (L.) Jacq.; conditions: for IPOHE herbicidal rating: postemergence
# Procedure, shortened: as §1
# [3] = system: ECHCG (Echinochloa crus-galli); experiment: Postemergence herbicidal evaluation; format: in vivo, (L.) Beau; conditions: for ECHCG herbicidal rating: postemergence
# Procedure, shortened: as §1
# SETVI (Setaria viridis) [4] = experiment: Postemergence herbicidal evaluation; format: in vivo, (L.) Beau; conditions: for SETVI herbicidal rating: postemergence
# Procedure, shortened: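 Seedlings grown about two weeks were sprayed with compound in 50/50 acetone/water containing 0.5% TWEEN 20, at about 0.0040 to 1.000 kg/ha via nozzle at 40 psi. Plants were kept under greenhouse conditions and visually rated on a 0-9 scale versus control four to five weeks after treatment; replicate tests averaged.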
# [5] = system: GLXMAW (Soybean, Williams); experiment: Postemergence herbicidal evaluation; format: in vivo, Glycine max, (L.) Merr. cv Williams; conditions: for GLXMAW herbicidal rating: postemergence
# Procedure, shortened: as §1
# ORYSAT (Rice, Tebonnet) [6] = experiment: Postemergence herbicidal evaluation; format: in vivo, Oryza sativa, (L.) Tebonnet; conditions: for ORYSAT herbicidal rating: postemergence
# Procedure, shortened: as §1
# ZEAMX (Corn, Field) = experiment: Postemergence herbicidal evaluation; format: in vivo, Zea mays, L.; conditions: for ZEAMX herbicidal rating: postemergence
# Procedure, shortened: as §1
# [7] = system: AMBEL (Ambrosia artemisifolia); experiment: Preemergence herbicidal evaluation; format: in vivo, L.; conditions: rated 4-5 weeks after treatment
# Procedure, shortened: (§2)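 Scores (0–9) reflect visual comparison with control plants for stand, vigor, malformation, size and chlorosis. Seeds in potting soil received a post-planting spray of compound in aqueous acetone and grew in a greenhouse until assessment 4–5 weeks later.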
# [8] = system: CASOB (Cassia obtusifolia); experiment: Preemergence herbicidal evaluation; format: in vivo, L.; conditions: rated 4-5 weeks after treatment
# Procedure, shortened: as §2
# [9] = system: CHEAL (Chenopodium album); experiment: Preemergence herbicidal evaluation; format: in vivo, L.; conditions: rated 4-5 weeks after treatment
# Procedure, shortened: as §2
# [10] = system: IPOHE (Ipomoea hederacea); experiment: Preemergence herbicidal evaluation; format: in vivo, (L.) Jacq.; conditions: rated 4-5 weeks after treatment
# [11] = system: ECHCG (Echinochloa crus-galli); experiment: Preemergence herbicidal evaluation; format: in vivo, (L.) Beau; conditions: rated 4-5 weeks after treatment
# Procedure, shortened: as §2
# SETVI (Setaria viridis) [12] = experiment: Preemergence herbicidal evaluation; format: in vivo, (L.) Beau; conditions: rated 4-5 weeks after treatment
# Procedure, shortened: as §2
# ORYSAT (Rice, Tebonnet) [13] = experiment: Preemergence herbicidal evaluation; format: in vivo, Oryza sativa, (L.) Tebonnet; conditions: rated 4-5 weeks after treatment
# [14] = system: ECHORC (Echinochloa oryzoides); experiment: Flooded paddy, preemergence weed control; format: in vivo, Echinochloa oryzoides (Ard.) Fritsch.; conditions: rated 3-4 weeks after treatment, 0-9 rating scale
# Procedure, shortened: (§3)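 Silt loam, sowing depth ≤0.5 cm; permanent flood 1.5–3 cm above soil; greenhouse culture after treatment. Readout: 0-9 visual scale (stand, vigor, malformation, size, chlorosis, appearance) vs control.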
# CYPIR (Cyperus iria) = experiment: Flooded paddy, preemergence weed control; format: in vivo; conditions: rate 0.1250 kg/ha, rated 3-4 weeks after treatment, 0-9 rating scale
# Procedure, shortened: as §3
# [15] = system: MOOVA (Monochoria vaginalis); experiment: Flooded paddy, preemergence weed control; format: in vivo, Presl.; conditions: rated 3-4 weeks after treatment, 0-9 rating scale
# Procedure, shortened: as §3
# [16] = system: SAGPY (Sagittaria pygmaea); experiment: Flooded paddy, preemergence weed control; format: in vivo, L.; conditions: rate 0.0080 kg/ha, rated 3-4 weeks after treatment, 0-9 rating scale
# Procedure, shortened: as §3
# [17] = rate 0.0080 kg/ha, listed as 82
# [18] = rate 0.0320 kg/ha, listed as 82
substance,measurement,setting,value
"1-methyl-3-[3-(1,3-oxathian-2-yl)-1,2-benzisothiazol-5-yl]-6-(trifluoromethyl)uracil S′,S′-dioxide [Compound 35]",ABUTH herbicidal rating,[1]; rate 0.0320 kg/ha,9.0
same,ABUTH herbicidal rating,[1]; rate 0.0620 kg/ha,9.0
same,"Postemergence herbicidal rating, ABUTH",[1]; rate 0.0320 kg/ha,9.0
same,"Postemergence herbicidal rating, ABUTH",[1]; rate 0.0620 kg/ha,9.0
same,GALAP herbicidal rating,GALAP (Galium aparine); rate 0.0320 kg/ha,2.0
same,GALAP herbicidal rating,GALAP (Galium aparine); rate 0.0620 kg/ha,4.0
same,"Postemergence herbicidal rating, GALAP",GALAP (Galium aparine); rate 0.0320 kg/ha,3.0
same,"Postemergence herbicidal rating, GALAP",GALAP (Galium aparine); rate 0.0620 kg/ha,4.0
same,IPOHE herbicidal rating,[2]; rate 0.0320 kg/ha,7.0
same,IPOHE herbicidal rating,[2]; rate 0.0620 kg/ha,9.0
same,"Postemergence herbicidal rating, IPOHE",[2]; rate 0.0320 kg/ha,9.0
same,"Postemergence herbicidal rating, IPOHE",[2]; rate 0.0620 kg/ha,9.0
same,ECHCG herbicidal rating,[3]; rate 0.0320 kg/ha,2.0
same,ECHCG herbicidal rating,[3]; rate 0.0620 kg/ha,3.0
same,"Postemergence herbicidal rating, ECHCG",[3]; rate 0.0320 kg/ha,3.0
same,"Postemergence herbicidal rating, ECHCG",[3]; rate 0.0620 kg/ha,4.0
same,SETVI herbicidal rating,SETVI (Setaria viridis) [4]; rate 0.0320 kg/ha,3.0
same,SETVI herbicidal rating,SETVI (Setaria viridis) [4]; rate 0.0620 kg/ha,4.0
same,"Postemergence herbicidal rating, SETVI",SETVI (Setaria viridis) [4]; rate 0.0320 kg/ha,9.0
same,"Postemergence herbicidal rating, SETVI",SETVI (Setaria viridis) [4]; rate 0.0620 kg/ha,9.0
same,GLXMAW herbicidal rating,[5]; rate 0.0320 kg/ha,4.0
same,GLXMAW herbicidal rating,[5]; rate 0.0620 kg/ha,5.5
same,"Postemergence herbicidal rating, GLXMAW",[5]; rate 0.0320 kg/ha,9.0
same,"Postemergence herbicidal rating, GLXMAW",[5]; rate 0.0620 kg/ha,9.0
same,ORYSAT herbicidal rating,"ORYSAT (Rice, Tebonnet) [6]; rate 0.0320 kg/ha",1.5
same,ORYSAT herbicidal rating,"ORYSAT (Rice, Tebonnet) [6]; rate 0.0620 kg/ha",2.5
same,"Postemergence herbicidal rating, ORYSAT","ORYSAT (Rice, Tebonnet) [6]; rate 0.0320 kg/ha",6.5
same,"Postemergence herbicidal rating, ORYSAT","ORYSAT (Rice, Tebonnet) [6]; rate 0.0620 kg/ha",6.5
same,ZEAMX herbicidal rating,"ZEAMX (Corn, Field); rate 0.0320 kg/ha",3.0
same,ZEAMX herbicidal rating,"ZEAMX (Corn, Field); rate 0.0620 kg/ha",3.0
same,"Postemergence herbicidal rating, ZEAMX","ZEAMX (Corn, Field); rate 0.0320 kg/ha",7.5
same,"Postemergence herbicidal rating, ZEAMX","ZEAMX (Corn, Field); rate 0.0620 kg/ha",7.5
same,AMBEL preemergence herbicidal rating,[7]; Rate 0.0620 kg/ha,9.0
same,Preemergence herbicidal rating AMBEL,[7]; Rate 0.0620 kg/ha,3.5
same,AMBEL preemergence herbicidal rating,[7]; Rate 0.1250 kg/ha,9.0
same,Preemergence herbicidal rating AMBEL,[7]; Rate 0.1250 kg/ha,5.5
same,AMBEL preemergence herbicidal rating,[7]; Rate 0.2500 kg/ha,9.0
same,Preemergence herbicidal rating AMBEL,[7]; Rate 0.2500 kg/ha,6.5
same,CASOB preemergence herbicidal rating,[8]; Rate 0.0620 kg/ha,7.0
same,Preemergence herbicidal rating CASOB,[8]; Rate 0.0620 kg/ha,0.0
same,CASOB preemergence herbicidal rating,[8]; Rate 0.1250 kg/ha,7.0
same,Preemergence herbicidal rating CASOB,[8]; Rate 0.1250 kg/ha,1.5
same,CASOB preemergence herbicidal rating,[8]; Rate 0.2500 kg/ha,9.0
same,Preemergence herbicidal rating CASOB,[8]; Rate 0.2500 kg/ha,2.0
same,CHEAL preemergence herbicidal rating,[9]; Rate 0.0620 kg/ha,9.0
same,Preemergence herbicidal rating CHEAL,[9]; Rate 0.0620 kg/ha,9.0
same,CHEAL preemergence herbicidal rating,[9]; Rate 0.1250 kg/ha,9.0
same,Preemergence herbicidal rating CHEAL,[9]; Rate 0.1250 kg/ha,9.0
same,CHEAL preemergence herbicidal rating,[9]; Rate 0.2500 kg/ha,9.0
same,Preemergence herbicidal rating CHEAL,[9]; Rate 0.2500 kg/ha,9.0
same,IPOHE preemergence herbicidal rating,[10]; Rate 0.0620 kg/ha,9.0
same,Preemergence herbicidal rating IPOHE,[10]; Rate 0.0620 kg/ha,0.5
same,IPOHE preemergence herbicidal rating,[10]; Rate 0.1250 kg/ha,9.0
same,Preemergence herbicidal rating IPOHE,[10]; Rate 0.1250 kg/ha,3.0
same,IPOHE preemergence herbicidal rating,[10]; Rate 0.2500 kg/ha,9.0
same,Preemergence herbicidal rating IPOHE,[10]; Rate 0.2500 kg/ha,7.0
same,ECHCG preemergence herbicidal rating,[11]; Rate 0.0620 kg/ha,8.0
same,Preemergence herbicidal rating ECHCG,[11]; Rate 0.0620 kg/ha,3.0
same,ECHCG preemergence herbicidal rating,[11]; Rate 0.1250 kg/ha,9.0
same,Preemergence herbicidal rating ECHCG,[11]; Rate 0.1250 kg/ha,6.0
same,ECHCG preemergence herbicidal rating,[11]; Rate 0.2500 kg/ha,9.0
same,Preemergence herbicidal rating ECHCG,[11]; Rate 0.2500 kg/ha,7.5
same,SETVI preemergence herbicidal rating,SETVI (Setaria viridis) [12]; Rate 0.0620 kg/ha,9.0
same,Preemergence herbicidal rating SETVI,SETVI (Setaria viridis) [12]; Rate 0.0620 kg/ha,8.0
same,SETVI preemergence herbicidal rating,SETVI (Setaria viridis) [12]; Rate 0.1250 kg/ha,9.0
same,Preemergence herbicidal rating SETVI,SETVI (Setaria viridis) [12]; Rate 0.1250 kg/ha,9.0
same,SETVI preemergence herbicidal rating,SETVI (Setaria viridis) [12]; Rate 0.2500 kg/ha,9.0
same,Preemergence herbicidal rating SETVI,SETVI (Setaria viridis) [12]; Rate 0.2500 kg/ha,9.0
same,ORYSAT preemergence herbicidal rating,"ORYSAT (Rice, Tebonnet) [13]; Rate 0.0620 kg/ha",5.5
same,Preemergence herbicidal rating ORYSAT,"ORYSAT (Rice, Tebonnet) [13]; Rate 0.0620 kg/ha",0.0
same,ORYSAT preemergence herbicidal rating,"ORYSAT (Rice, Tebonnet) [13]; Rate 0.1250 kg/ha",9.0
same,Preemergence herbicidal rating ORYSAT,"ORYSAT (Rice, Tebonnet) [13]; Rate 0.1250 kg/ha",0.0
same,ORYSAT preemergence herbicidal rating,"ORYSAT (Rice, Tebonnet) [13]; Rate 0.2500 kg/ha",9.0
same,Preemergence herbicidal rating ORYSAT,"ORYSAT (Rice, Tebonnet) [13]; Rate 0.2500 kg/ha",0.0
same,"herbicidal rating, ECHORC",[14]; rate 0.0080 kg/ha,0.0
same,"herbicidal rating, ECHORC",[14]; [17],7.0
same,"herbicidal rating, ECHORC",[14]; rate 0.0320 kg/ha,5.5
same,"herbicidal rating, ECHORC",[14]; [18],9.0
same,"herbicidal rating, ECHORC",[14]; rate 0.1250 kg/ha,7.5
same,"herbicidal rating, ECHORC","[14]; rate 0.1250 kg/ha, listed as 82",9.0
same,"herbicidal rating, CYPIR",CYPIR (Cyperus iria),9.0
same,"herbicidal rating, MOOVA",[15]; rate 0.0080 kg/ha,0.0
same,"herbicidal rating, MOOVA",[15]; [17],8.5
same,"herbicidal rating, MOOVA",[15]; rate 0.0320 kg/ha,5.0
same,"herbicidal rating, MOOVA",[15]; [18],9.0
same,"herbicidal rating, MOOVA",[15]; rate 0.1250 kg/ha,9.0
same,"herbicidal rating, SAGPY",[16],0.0
